# Experiments:
# Male Swiss-Webster mice = assay: 3-nitrotyrosine to tyrosine ratio in mouse striatum after MPTP; format: in vivo; conditions: MPTP 20 mg/kg x4; 7-NI 25 or 50 mg/kg
# Protocol: Dopamine, 3,4-dihydroxyphenlyacetic acid (DOPAC), homovanillic acid (HVA), p-tyrosine, and 3-nitrotyrosine were quantified by HPLC with 16-electrode electrochemical detection (Beal et al. (1990) supra) and are expressed as ng/mg protein (mean±SEM) (FIG. 1). 3-Nitrotyrosine data are expressed as ratios of 3-nitrotyrosine to p-tyrosine to normalize for differing brain concentrations of tyrosine. The statistical significance of differences was determined via one-way ANOVA followed by Fisher PLSD post hoc test to compare group means. All animal use procedures were in strict accordance with the NIH Guide for the Care and Use of Laboratory Animals and were approved by the local Animal Care Committee.
# Role of Peroxynitrite in MPTP. To determine whether peroxynitrite plays a role in MPTP neurotoxicity, we therefore measured the ratio of 3-nitrotyrosine to tyrosine in mouse striatum following administration of MPTP.
# Male Sprague-Dawley rats [1] = assay: Body temperature in rats under pentobarbital anesthesia; format: in vivo, rat; conditions: 1 h after 50 mg/kg 7-NI i.p., control 36.5±0.1, p<0.02
# Protocol: (§1) Stereotaxic Lesion Technique. Male Sprague-Dawley rats (Charles River, Cambridge, Mass.) weighing 300-325 g were anesthetized with pentobarbital (50 mg/kg i.p.) and positioned in a David Kopf stereotaxic instrument with the incisor bar set at 3.3 mm below the intermural line. Malonate, NMDA, KA, and AMPA were dissolved in 0.1M phosphate-buffered saline (pH, 7.4). Intrastriatal injections were made with a 10 μl Hamilton syringe fitted with a 30 gauge blunt-tipped needle into the left striatum at the coordinates 0.5 mm anterior bregma, 2.6 mm lateral to the midline and 5 mm ventral to the dura. Injection volumes were 1 μl (3 μmol malonate). All injections were made over 1 min and the needle was left in place for an additional 1 min before being slowly withdrawn. 7-NI was dissolved and sonicated in peanut oil at a concentration of 10 mg/ml. 50 mg/kg of 7-NI were administered i.p. 30 min before striatal injections of malonate, NMDA, KA and AMPA. […] Nine to ten animals were used per group in each experiment.
# Male Sprague-Dawley rats [2] = assay: Striatal lesions produced by intrastriatal NMDA, AMPA, KA (TTC staining); format: in vivo, rat
# Protocol: as §1
# Quantification of Lesion Volume. One week after the striatal injections, animals were sacrificed by decapitation and the brains were rapidly removed, placed in cold saline for 10 min, and sectioned coronally into slices at 2 mm intervals. Slices were stained in 2% 2,3,5-triphenyltetrazolium chloride monohydrate (TTC) (Sigma, St. Louis, Mo.) solution at room temperature in the dark for 30 min followed by fixation in phosphate-buffered 4% paraformaldehyde. (Bederson et al. (1986) Stroke 17:1304-1308.) The lesioned area (noted by pale staining) was measured on the posterior surface of each section using an Apple Macintosh.COPYRGT. based image analysis system (Sony color video camera, Software: ColorSnap.COPYRGT. (Computer Friends Inc., Portland, Oreg.) and IPLab Spectrum.COPYRGT. (Signal Analytics, Vienna, Va.)). The lesions were evaluated by an experienced histologist, who verified the reliability of the TTC measurements in animals injected with malonate on adjacent sections stained with either TTC or Nissl stain (Schulz et al. (1995) J. Neurochem 64:in press).
# Male Sprague-Dawley rats [3] = assay: Striatal lesions produced by intrastriatal malonate (TTC staining); format: in vivo, rat; conditions: 7-NI 25 and 50 mg/kg i.p. 0.5 h before malonate
# Protocol: Stereotaxic Lesion Technique. Male Sprague-Dawley rats (Charles River, Cambridge, Mass.) weighing 300-325 g were anesthetized with pentobarbital (50 mg/kg i.p.) and positioned in a David Kopf stereotaxic instrument with the incisor bar set at 3.3 mm below the intermural line. Malonate, NMDA, KA, and AMPA were dissolved in 0.1M phosphate-buffered saline (pH, 7.4). Intrastriatal injections were made with a 10 μl Hamilton syringe fitted with a 30 gauge blunt-tipped needle into the left striatum at the coordinates 0.5 mm anterior bregma, 2.6 mm lateral to the midline and 5 mm ventral to the dura. Injection volumes were 1 μl (3 μmol malonate). […]
# Quantification of Lesion Volume. […] (Bederson et al. (1986) Stroke 17:1304-1308.) The lesioned area (noted by pale staining) was measured on the posterior surface of each section using an Apple Macintosh.COPYRGT. based image analysis system (Sony color video camera, Software: ColorSnap.COPYRGT. (Computer Friends Inc., Portland, Oreg.) and IPLab Spectrum.COPYRGT. (Signal Analytics, Vienna, Va.)). The lesions were evaluated by an experienced histologist, who verified the reliability of the TTC measurements in animals injected with malonate on adjacent sections stained with either TTC or Nissl stain (Schulz et al. (1995) J. Neurochem 64:in press).
# rats = assay: Striatal ATP after intrastriatal malonate (luciferin-luciferase); format: in vivo, rat; conditions: 7-NI 50 mg/kg; 3 μmol malonate; measured 1.5 h after injection
# Protocol: ATP Measurements. The effects of 7-NI on malonate-induced decreases in striatal ATP concentrations were examined. 50 mg/kg of 7-NI dissolved in peanut oil or peanut oil vehicle were administered i.p. 0.5 h before intrastriatal injection of 3 μmol malonate. […] After decapitation the heads were rapidly frozen in liquid nitrogen and subsequently stored at -70° C. The striata were dissected from a 2 mm slice frontal and adjacent to the anterior commissure on a freezing cold plate. The corpus callosum, the septal complex, and the anterior commissure were used as dorsal and lateral, medial, and ventral boundaries. ATP was measured by the luciferin-luciferase assay (Lust et al. (1981) Anal. Biochem. 110-258-266). Proteins were measured on the pellets using a fluorimetric assay. Eight animals per group were examined.
# Male Sprague-Dawley rats [4] = assay: Lactate and lesion volume by magnetic resonance after intrastriatal malonate; format: in vivo, rat
# Protocol: Localized Lactate Measurements by Magnetic Resonance Spectroscopy. The effects on lactate production of intrastriatal injections of 3 μmol malonate and the influence of pretreatment with 7-NI on these lactate levels were assessed in vivo using magnetic resonance imaging (Brouillet et al. (1993) J. Neurochem. 60:356-359). Male Sprague-Dawley rats weighing 275-325 g received either i.p. injections of peanut oil (vehicle) or 50 mg/kg 7-NI (n=5-6 per group). […] Rats were imaged under halothane/N2 O/O2 anesthesia on a 4.7 Tesla GE Omega CSI Imager using a 30 mm bird cage coil at 1.5-2 h after striatal malonate injections. […] Lesion volumes were measured using a T2 -weighted sequence (TR/TE 3200/80 ms) with slice thickness of 2.5 mm, and a field of view of 40 mm. Lesion volumes were measured using a criterion for abnormal tissue of being 2 standard deviations above the mean signal intensity in the contralateral unaffected striatum. Lactate was measured using double phase encoding three dimensional (x,y,ω) water suppressed chemical shift imaging sequence with an inversion pulse for lipid suppression described earlier (Jenkins et al. (1993) Neurology 43:2689-2695). […] Lactate concentrations were measured in the lesioned striatum by delineating the striatum in the water image and overlaying the contours on the lactate images. […]
# [5] = Babbedge et al. 1993; Moore et al. 1993; cited from earlier work
# Male Sprague-Dawley rats [6] = assay: Spontaneous striatal electrophysiological activity; conditions: 60 minutes after 50 mg/kg 7-NI; urethane anesthetized rats
# Protocol: Electrophysiology. Four male Sprague-Dawley rats weighing 300 to 400 g were used for electrophysiological studies. Animals were anesthetized with urethane 1.5 g/kg i.p. and placed in a stereotaxic apparatus with their body temperatures maintained at 37° C. by a feedback heating pad. A 0.5×0.5 cm craniotomy was made and recording electrodes were placed in the anterior striatum using stereotaxic coordinates and aural monitoring. Following electrode placement the craniotomy was covered with 4% agar in saline and 30 min were allowed for stabilization before recordings were made. The spontaneous activity of multiple units were recorded extracellularly in the striatum, 3-4 mm anterior to the bregma and 3-4 mm lateral to the midline at a depth of 2.5-4.0 mm using commercially available tungsten microelectrodes (4 M.OMEGA. at 1 kHz, F. Haer, Inc.). […] Data acquisition and analysis of mean firing rate was performed using Discovery.COPYRGT., Experimenters WorkBench.COPYRGT. and Personal Scientific Workstation.COPYRGT. software (DataWave Technologies, Longmont, Colo.). We investigated the electrophysiological effects of the NMDA antagonist MK-801 and the NOS inhibitor 7-NI. […] Finally, spontaneous activity was recorded after the NMDA channel mediated activity was blocked by injection of MK-801 (4 mg/kg).
# [7] = 2 doses of 50 mg/kg 7-NI 4 h and 0.5 h before striatal injection
smiles,measurement,setting,value
"O=[N+]([O-])c1cccc2cn[nH]c12 [7-NI, 7-nitroindazole]",MPTP-induced increase of 3-nitrotyrosine to tyrosine ratio in striatum,Male Swiss-Webster mice,significantly attenuated
same,body temperature,Male Sprague-Dawley rats [1],35.9±0.26 ° c.
same,protection against lesions produced by 5 nmol KA,Male Sprague-Dawley rats [2]; [7],no protection
same,protection against lesions produced by 30 nmol AMPA,Male Sprague-Dawley rats [2]; [7],no protection
same,protection against lesions produced by 200 nmol NMDA,Male Sprague-Dawley rats [2]; [7],35%
same,"striatal lesion volume, 200 nmol NMDA","Male Sprague-Dawley rats [2]; single dose 7-NI 50 mg/kg i.p. before striatal injection, vehicle 25.0±2.4",21.3±3.4 mm^3
same,"striatal lesion volume, 30 nmol AMPA","Male Sprague-Dawley rats [2]; single dose 7-NI 50 mg/kg i.p. before striatal injection, vehicle 33.6±4.6",30.4±5.2 mm^3
same,"striatal lesion volume, 5 nmol KA","Male Sprague-Dawley rats [2]; single dose 7-NI 50 mg/kg i.p. before striatal injection, vehicle 39.5±2.9",36.3±4.4 mm^3
same,striatal lesion produced by 3 μmol malonate,Male Sprague-Dawley rats [3],significantly and dose dependently attenuated
same,malonate-induced decreases of striatal ATP concentrations,rats,significantly attenuated
same,malonate-induced increase in striatal lactate concentrations (MR spectroscopy),"Male Sprague-Dawley rats [4]; 7-NI 50 mg/kg i.p. 0.5 h before striatal lesion, 1.5 h after malonate",significantly attenuated
same,lesion volume by T2-weighted MR imaging,"Male Sprague-Dawley rats [4]; 2 h after striatal malonate, n=6, vehicle 84.01±16.2, p<0.01",34.9±27.7 mm^3
same,effect on blood pressure in vivo,[5],no effect
same,mean spontaneous firing rate in striatum,Male Sprague-Dawley rats [6],not significantly different from the baseline
